Where a name gives a salt, the structure may show the parent alone.
What was measured:
[1] = molecular target: T1, human GPR4 (Homo sapiens (Human), UniProt P46093); assay: Human GPR4 binding assay with additional human serum albumin (4% HSA); conditions: binding assay with 4% HSA
Experimental: (§1) Cells were grown in T175 flasks to a density of about 1×10^6 cells/mL in growth medium. The cells were harvested by centrifugation (3000 rpm for 30 minutes at 4° C.) and the pellet resuspended in ice cold buffer A (20 mM HEPES pH 7.8, 10 mM EDTA, 100 mM NaCl, 1 tab/40 mL protease inhibitor complete). […] The homogenate was centrifuged at 18000 rpm for 50 min at 4° C. and the membrane protein pellet resuspended in cold buffer A using the Polytron (2×20 seconds). The protein concentration is determined using the Bio Rad Protein Assay and human IgG as standard. The volume of the membrane protein suspension is adjusted to a final concentration of about 2 mg protein/mL. The suspension is then once again homogenized (Polytron) on ice at 25000 rpm for 20 seconds before being aliquoted and stored at −80° C.
(§2) Radio Ligand Binding Assay: Serial dilutions of compounds (stock in 10 mM DMSO) are prepared by first diluting the compounds in DMSO followed by a 1:50 dilution into assay buffer (10 mM HEPES, pH 8.0, 100 mM NaCl, 5 mM MgCl2, 1 mM CaCl2, 0.5% fatty acid-free BSA, 0.05% Tween-20). […] The desired amount of membranes (20 μg/well) is diluted with assay buffer. […] 100 μL of the membrane-suspension is added and the plate stirred for 60 minutes. […] The filter plate is washed 5 times with ice-cold wash buffer, dried and sealed at the bottom. Then 20 μL of Microscint 40 is added into each well and the top of the plate is sealed. Finally the plate is counted for 2 min/well in a TopCount NXT instrument (Packard Instruments). The data are analyzed using the GraphPad Prism™ software.
In a similar manner, a binding assay with additional human serum albumin (4% HSA) has been established.

[2] = molecular target: rat GPR4 (Rattus norvegicus (Rat), UniProt Q4KLH9); assay: Rat GPR4 cAMP assay; format: cell-based; conditions: read-out: r cAMP IC50
Experimental: (§3) HeLa cells stably expressing human GPR4 were established by transfecting the cells with a construct containing the human GPR4 coding sequence. The cells were grown in Dulbecco's Modified Eagle Medium (DMEM)/HAM's tissue culture medium F12 (HAM's F12) supplemented with 10% fetal calf serum (FCS), 100 u/ml penicillin, 100 μg/ml streptomycin and 400 μg/ml G418 and 10 mM Hepes pH 8.0. pH-induced formation of cAMP was determined using the homogeneous time resolved fluorescence (HTRF) technology as provided by CisBio Inc. The cells were seeded in 384-well plates and cultured for 24 hours at 37° C., 5% CO2 before performing the assay. Medium was removed and 10 μl buffer A (Hepes buffered saline (HBS), 10 mM Hepes, pH 8, 2 mM 3-Isobutyl-1-methylxanthin (IBMX)) was added. For compound testing, buffer A with 2× concentrated compounds was used. Cells were incubated for 15 min at room temperature. 10 μl buffer B (HBS, 30 mM Hepes, specific pH) was added to reach the appropriate final pH for stimulation (see below) and incubation was continued for 15 min at room temperature. […] HBS: 130 mM NaCl, 0.9 mM NaH2 PO4, 5.4 mM KCl, 0.8 mM MgSO4, CaCl2 1.8 mM, 25 mM glucose, 10-30 mM Hepes. Adjustment of HBS buffers:
(§4) Compounds were diluted from fresh stock solutions at 10 mM in DMSO to 2 mM and then used for serial dilutions in DMSO.
(§5) In a similar manner, assays for the mouse (m) and rat (r) GPR4 receptors have been established.

[3] = molecular target: T1, human GPR4; assay: Cell-based assay for human GPR4 activity (pH-induced cAMP formation, HTRF, HeLa cells); conditions: HeLa cells stably expressing human GPR4, pH-induced cAMP
Experimental: b) Cell-Based Assay for Human GPR4 Activity
as §3, §4

[4] = molecular target: T1, human GPR4; assay: Human GPR4 binding assay ([3H]4 radioligand, membranes of 300.19 cells expressing human GPR4)
Experimental: a) Human GPR4 Binding Assay
as §1, §2

[5] = molecular target: Human H3 (Homo sapiens (Human), UniProt Q9Y5N1); assay: Human H3 binding assay (SPA, [3H]-R-alpha-Methylhistamine); conditions: 3 nM [3H]-R-alpha-Methylhistamine
Experimental: c) Human H3 Binding Assay
The Scintillation Proximity Binding Assay (SPA) assay was performed in a final volume of 50 μL per well in a 384-well polystyrene plate.
The final concentration of the radioligand was 3 nM. • 20 μL of a beads (PVT-WGA type A) and membranes mixed suspension in assay buffer, in order to get a final concentration of 10 μg/well of membranes and 200 μg/well of beads. As an example, 1471 μL membranes (Conc.: 5.1 mg/mL) and 1500 μL of bead suspension (Conc.: 100 mg/mL) are diluted to a final volume of 15 mL of assay buffer.
The plates were sealed and shaken at room temperature, then allowed to stand at room temperature for at least 1 hour. The plates were counted using a Perkin Elmer TopCount reader, each well being counted for 1 minute.

[6] = molecular target: mouse GPR4 (Mus musculus (Mouse), UniProt Q8BUD0); assay: Mouse GPR4 cAMP assay; format: cell-based
Experimental: as §3, §4, §5

[7] = radioligand [3H]4 (example 39), membranes of 300.19 cells expressing human GPR4

mouse GPR4, sequence (Q8BUD0 whole entry): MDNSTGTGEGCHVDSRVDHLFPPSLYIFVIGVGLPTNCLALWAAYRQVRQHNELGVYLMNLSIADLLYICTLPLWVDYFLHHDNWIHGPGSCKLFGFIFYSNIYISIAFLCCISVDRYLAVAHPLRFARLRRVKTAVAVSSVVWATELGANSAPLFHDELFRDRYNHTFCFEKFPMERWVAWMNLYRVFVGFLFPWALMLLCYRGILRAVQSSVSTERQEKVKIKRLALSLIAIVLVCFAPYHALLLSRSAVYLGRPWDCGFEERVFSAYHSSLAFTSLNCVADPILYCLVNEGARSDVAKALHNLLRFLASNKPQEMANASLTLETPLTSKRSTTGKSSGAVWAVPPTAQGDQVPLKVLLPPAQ
Human H3, sequence (Q9Y5N1 whole entry): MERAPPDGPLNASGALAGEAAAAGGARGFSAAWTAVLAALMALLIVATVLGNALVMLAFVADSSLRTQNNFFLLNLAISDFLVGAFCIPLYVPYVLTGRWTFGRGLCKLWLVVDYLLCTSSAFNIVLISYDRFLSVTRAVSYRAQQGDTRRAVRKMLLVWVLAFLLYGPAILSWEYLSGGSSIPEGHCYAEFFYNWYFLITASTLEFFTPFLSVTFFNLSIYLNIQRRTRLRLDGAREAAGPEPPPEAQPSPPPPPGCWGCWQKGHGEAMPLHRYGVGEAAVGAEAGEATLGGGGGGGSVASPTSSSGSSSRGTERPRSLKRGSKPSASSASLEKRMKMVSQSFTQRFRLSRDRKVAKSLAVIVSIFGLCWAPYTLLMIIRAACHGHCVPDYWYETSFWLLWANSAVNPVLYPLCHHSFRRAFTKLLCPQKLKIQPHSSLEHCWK
T1 sequence (P46093 whole entry): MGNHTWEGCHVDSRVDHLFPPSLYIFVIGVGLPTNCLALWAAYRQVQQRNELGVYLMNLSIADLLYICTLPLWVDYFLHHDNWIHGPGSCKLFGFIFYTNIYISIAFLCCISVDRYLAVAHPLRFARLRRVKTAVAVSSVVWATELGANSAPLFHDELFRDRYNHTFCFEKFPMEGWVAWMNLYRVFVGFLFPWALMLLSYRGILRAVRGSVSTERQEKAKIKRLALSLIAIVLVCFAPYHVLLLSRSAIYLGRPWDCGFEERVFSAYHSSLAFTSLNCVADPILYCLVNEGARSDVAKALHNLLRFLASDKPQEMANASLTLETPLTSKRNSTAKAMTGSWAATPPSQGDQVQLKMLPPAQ
rat GPR4, sequence (Q4KLH9 whole entry): as the sequence (Q8BUD0 whole entry) above, with G8W, H51R, S339T counted along it

| SMILES | IC50 [1] | IC50 [2] | IC50 [3] | IC50 [4, 7] | IC50 [5] | IC50 [6] | IC50 [4] | IC50 ([1]; read-out: GPR4 4% HSA IC50) |
| --- | --- | --- | --- | --- | --- | --- | --- | --- |
| CCc1nn2c(C)cc(C)nc2c1Cc1ccc(/C=C/C[C@]2(O)CCN[C@@H](C)C2)cc1 [Example 5, (2S,4S)-4-{(E)-3-[4-(2-Ethyl-5,7-dimethyl-pyrazolo[1,5-a]pyrimidin-3-ylmethyl)-phenyl]-allyl}-2-methyl-piperidin-4-ol] | 11 nM | 162 nM | 17 nM | 15 nM | > 30000 nM | 70 nM |  |  |
| CCc1nn2c(C)cc(C)nc2c1Cc1ccc(/C=C/CN2CCN[C@H](COC)C2)cc1 [Example 10, 2-Ethyl-3-{4-[(E)-3-((S)-3-methoxymethyl-piperazin-1-yl)-propenyl]-benzyl}-5,7-dimethyl-pyrazolo[1,5-a]pyrimidine] | 93 nM | 1340 nM | 54 nM | 33 nM | > 30000 nM | 401 nM |  |  |
| CCc1nn2c(C)cc(C)nc2c1Cc1ccc(/C=C/CN2CCN[C@@H](CN(C)C)C2)cc1 [Example 13, ((S)-4-{(E)-3-[4-(2-Ethyl-5,7-dimethyl-pyrazolo[1,5-a]pyrimidin-3-ylmethyl)-phenyl]-allyl}-piperazin-2-ylmethyl)-dimethyl-amine trihydrochloride] | 7 nM | 1690 nM | 68 nM |  | 4900 nM | 388 nM | 7 nM |  |
| CCc1nn2c(C)cc(C)nc2c1Cc1ccc(/C=C/CN2CCN(C(=O)[C@H](CO)NC)CC2)cc1 [Example 15, (S)-1-(4-{(E)-3-[4-(2-Ethyl-5,7-dimethyl-pyrazolo[1,5-a]pyrimidin-3-ylmethyl)-phenyl]-allyl}-piperazin-1-yl)-3-hydroxy-2-methylamino-propan-1-one] | 44 nM | 634 nM | 56 nM | 51 nM | 26000 nM | 216 nM |  |  |
| CCc1nn2c(C)cc(C)nc2c1Cc1ccc(/C=C/CN2CCN(C(=O)[C@H]3NCC[C@H]3O)CC2)cc1 [Example 16, (4-{(E)-3-[4-(2-Ethyl-5,7-dimethyl-pyrazolo[1,5-a]pyrimidin-3-ylmethyl)-phenyl]-allyl}-piperazin-1-yl)-((2S,3R)-3-hydroxy-pyrrolidin-2-yl)-methanone dihydrochloride] | 120 nM | 837 nM | 41 nM | 35 nM | > 30000 nM | 200 nM |  |  |
| CCc1nn2c(C)cc(C)nc2c1Cc1ccc(/C=C/C(=O)N2CCNCC2)cc1 [Example 18, (E)-3-[4-(2-Ethyl-5,7-dimethyl-pyrazolo[1,5-a]pyrimidin-3-ylmethyl)-phenyl]-1-piperazin-1-yl-propenone hydrochloride] |  | 1800 nM | 43 nM | 81 nM | > 30000 nM | 1280 nM |  | 67 nM |
| CCc1nn2c(C)cc(C)nc2c1Cc1ccc(-n2cc(CC3(O)CCNCC3)nn2)cc1 [Example 34, 4-{1-[4-(2-Ethyl-5,7-dimethyl-pyrazolo[1,5-a]pyrimidin-3-ylmethyl)-phenyl]-1H-[1,2,3]triazol-4-ylmethyl}-piperidin-4-ol] | 78 nM | 1230 nM | 58 nM |  | > 30000 nM | 534 nM | 77 nM |  |

The remaining lines, values ahead:

| IC50 [1] | IC50 [2] | IC50 [3] | IC50 [4, 7] | IC50 [5] | IC50 [6] | IC50 [4] | IC50 ([1]; read-out: GPR4 4% HSA IC50) | SMILES |
| --- | --- | --- | --- | --- | --- | --- | --- | --- |
| 49 nM | 338 nM | 31 nM | 44 nM | > 30000 nM | 124 nM |  |  | CCc1nn2c(C)cc(C)nc2c1Cc1ccc(/C=C/CC2(O)CCNCC2)cc1 [Example 3, 4-{(E)-3-[4-(2-Ethyl-5,7-dimethyl-pyrazolo[1,5-a]pyrimidin-3-ylmethyl)-phenyl]-allyl}-piperidin-4-ol] |
| 56 nM | 1720 nM | 33 nM |  | > 30000 nM | 253 nM | 34 nM |  | CCc1nn2c(C)cc(C)nc2c1Cc1ccc(/C=C/CC2(O)CCN(C(=O)CNC)CC2)cc1 [Example 7, 1-(4-{(E)-3-[4-(2-Ethyl-5,7-dimethyl-pyrazolo[1,5-a]pyrimidin-3-ylmethyl)-phenyl]-allyl}-4-hydroxy-piperidin-1-yl)-2-methylamino-ethanone hydrochloride] |
| 12 nM | 691 nM | 55 nM | 10 nM | > 30000 nM | 127 nM |  |  | CCc1nn2c(C)cc(C)nc2c1Cc1ccc(/C=C/CN2CCNCC2)cc1 [Example 14, 2-Ethyl-5,7-dimethyl-3-[4-((E)-3-piperazin-1-yl-propenyl)-benzyl]-pyrazolo[1,5-a]pyrimidine] |
| 63 nM | 2090 nM | 52 nM | 110 nM | > 30000 nM | 635 nM |  |  | CCc1nn2c(C)cc(C)nc2c1Cc1ccc(OCCC2(O)CCNCC2)cc1 [Example 25, 4-{2-[4-(2-Ethyl-5,7-dimethyl-pyrazolo[1,5-a]pyrimidin-3-ylmethyl)-phenoxy]-ethyl}-piperidin-4-ol] |
| 69 nM | 2640 nM | 96 nM |  | > 30000 nM | 633 nM | 44 nM |  | CCc1nn2c(C)cc(C)nc2c1Cc1ccc(OCCN2CCNCC2)cc1 [Example 26, 2-Ethyl-5,7-dimethyl-3-[4-(2-piperazin-1-yl-ethoxy)-benzyl]-pyrazolo[1,5-a]pyrimidine] |
| 81 nM | 2630 nM | 64 nM | 59 nM | > 30000 nM | 507 nM |  |  | CCc1nn2c(C)cc(C)nc2c1Cc1ccc(OCCN2CCN[C@@H](COC)C2)cc1 [Example 27, 2-Ethyl-3-{4-[2-((R)-3-methoxymethyl-piperazin-1-yl)-ethoxy]-benzyl}-5,7-dimethyl-pyrazolo[1,5-a]pyrimidine] |
| 30 nM | 430 nM | 36 nM | 21 nM | > 30000 nM | 211 nM |  |  | CCc1nn2c(C)cc(C)nc2c1Cc1ccc(-n2cc(CN3CC(N)C3)cn2)cc1 [Example 29, 1-{1-[4-(2-Ethyl-5,7-dimethyl-pyrazolo[1,5-a]pyrimidin-3-ylmethyl)-phenyl]-1H-pyrazol-4-ylmethyl}-azetidin-3-ylamine] |
| 17 nM | 2290 nM | 51 nM | 5 nM | > 30000 nM | 284 nM |  |  | CCc1nn2c(C)cc(C)nc2c1Cc1ccc(-c2nnc([C@H]3CC[C@H](N)CC3)o2)cc1 [Example 36, 4-{5-[4-(2-Ethyl-5,7-dimethyl-pyrazolo[1,5-a]pyrimidin-3-ylmethyl)-phenyl]-[1,3,4]oxadiazol-2-yl}-cyclohexylamine] |
